A word on the CC50: it is the concentration giving 50% cytotoxicity. A word on the EC50: it is the concentration needed to bring the measured effect to its halfway point.

Series [1] is described as follows: NOVARTIS: Cytotoxicity against human hepatocellular carcinoma cell line (Huh7). The format is toxicity, cell-based, Huh-7. Conditions: Huh7 cells (hepatocellular carcinoma cell line).
For series [2], the system named is Plasmodium falciparum. Put plainly: NOVARTIS: Inhibition of Plasmodium falciparum W2 (drug-resistant) proliferation in erythrocyte-based infection assay. The format is functional, organism-based. Conditions: Plasmodium falciparum, W2; read-out: EC50.
Series [3] concerns Plasmodium falciparum. Briefly: NOVARTIS: Inhibition of Plasmodium falciparum 3D7 (drug-susceptible) proliferation in erythrocyte-based infection assay. Conditions: Plasmodium falciparum, 3D7. Type of series: functional, organism-based.

As for `O=C(NCCc1ccccc1)C(=O)NN=Cc1ccccc1`, the half-maximal cytotoxic concentration (CC50) in series [1] is more than 10 µM. Also, the EC50 in the series with Plasmodium falciparum [2] is more than 0.082 µM; in the series with Plasmodium falciparum [3], more than 1.25 µM.
The like results for `COc1cc(C(=O)NCCc2cc3ccccc3[nH]2)ccc1OC1CCN(CC(c2ccccc2)c2ccccc2)CC1` were, in that order, more than 10.9 µM, 0.0944 µM and 0.803 µM.
On the same counts, the results for `Cc1ccc2[nH]c3c(NCCCN(C)C)ncnc3c2c1` are 42 µM, 0.355 µM and 0.0777 µM.
Consider `OC(COc1ccc(OCC(O)CN2CCN(CCOc3ccccc3)CC2)cc1)CN1CCN(CCOc2ccccc2)CC1` (centres undefined), for which the CC50 in series [1] was more than 100 µM. In addition, the concentration for a half-maximal effect (EC50) was 0.853 µM in the series with Plasmodium falciparum [2] and more than 11 µM in the series with Plasmodium falciparum [3].
The like results for `Cc1ccc2[nH]c3c(NCCN(C)C)ncnc3c2c1` were, in that order, 29.6 µM, 0.254 µM and 0.168 µM.
With `COc1ccc(NC(=O)CCCCCn2c(SCC(=O)NCCc3ccc(OC)c(OC)c3)nc3ccsc3c2=O)cc1`, in series [1], the CC50 is more than 100 µM. Besides, the EC50 with Plasmodium falciparum [2] was 0.837 µM; with Plasmodium falciparum [3], more than 5.31 µM.
On the same counts, the results for `CCN(CC)CCNc1nc(C=Cc2ccc(Cl)cc2)nc2cc3ccccc3cc12` are 22.5 µM, 0.193 µM and 0.128 µM.
In series [1], `O=C(CSc1ccc2nnc(-c3cccc(F)c3)n2n1)Nc1ccc2c(c1)OCO2` yielded a half-maximal cytotoxic concentration (CC50) of more than 100 µM. The EC50 is 0.819 µM in the series with Plasmodium falciparum [2] and 2.11 µM with Plasmodium falciparum [3].
Consider `COC(=O)c1ccc2c(=O)n(Cc3ccco3)c(SCC(=O)n3nc(N)cc3C)nc2c1`, for which the 50% cytotoxic concentration (CC50) in series [1] was more than 100 µM. In addition, the EC50 with Plasmodium falciparum [2] worked out at 0.819 µM; in the series with Plasmodium falciparum [3], 0.337 µM.
The like results for `COc1cc([N+](=O)[O-])ccc1NC(=O)CN1CCN(C(=O)c2ccco2)CC1` were, in that order, more than 100 µM, 0.832 µM and 1.6 µM.
The compound `Cc1cc(N2CCN(Cc3ccccc3)CC2)n2c(nc3ccccc32)c1C#N` returned a 50% cytotoxic concentration (CC50) in series [1] of more than 100 µM. Besides, the EC50 amounted to 0.832 µM with Plasmodium falciparum [2] and 0.323 µM in the series with Plasmodium falciparum [3].
Take `Cc1cc(C)nc(Nc2nc(C)c3cc(C)c(C)cc3n2)n1`: the CC50 in series [1] is more than 100 µM. Further, the EC50 in the series on Plasmodium falciparum [2] stood at 0.829 µM; with Plasmodium falciparum [3], 1.32 µM.
Compound `O=C(Cc1cccs1)N1CCC(n2c(Cc3ccc(F)cc3)nc3cccnc32)CC1` gave a CC50 in series [1] of more than 100 µM. Besides, the EC50 in the series with Plasmodium falciparum [2] is 0.827 µM; with Plasmodium falciparum [3], more than 12.5 µM.
On the same counts, the results for `CCOC(=O)c1c(N)n(-c2ccc(CC)cc2)c2nc3ccccc3nc12` are more than 100 µM, 0.823 µM and 0.797 µM.
Turning to `CCOC(=O)c1cnc2ccc(C)cc2c1NCCCN1CCOCC1`, the CC50 in series [1] was more than 100 µM. Also, the EC50 was determined as 0.827 µM with Plasmodium falciparum [2] and 0.9 µM with Plasmodium falciparum [3].
On the same counts, the results for `Cc1nc(C(C)N(C)Cc2c(C(=O)N3CCCCCCC3)nc3sccn23)c(C)s1` (centres undefined) are more than 100 µM, 0.825 µM and more than 7.03 µM.
On the same counts, the results for `CC(C)(C)CC(C)(C)Nc1c(-c2ccccc2OC(=O)c2cccc(Br)c2)nc2ccccn12` are more than 100 µM, 0.823 µM and 6.62 µM.
On the same counts, the results for `COc1ccccc1Nc1nc2cc([N+](=O)[O-])c([N+](=O)[O-])cc2nc1Nc1cccc(Cl)c1` are more than 10 µM, 0.0822 µM and more than 1.25 µM.
The compound `COc1cc(/C=C\C(=O)Nc2c3c(nn2-c2ccc(F)cc2)CSC3)cc(OC)c1OC` showed a CC50 in series [1] of more than 10 µM. Also, the EC50 in the series with Plasmodium falciparum [2] turned out to be 0.0844 µM; in the series on Plasmodium falciparum [3] it was 0.614 µM.
The like results for `COc1ccc(-c2cc(C(F)(F)F)n3nc(C(=O)NC4CCCCC4)c(Cl)c3n2)cc1OC` were, in that order, more than 4.02 µM, 0.0348 µM and more than 0.441 µM.
The like results for `CC(=O)Nc1ccc(N2C(=O)CSC2c2ccc(Br)cc2)cc1` (centres undefined) were, in that order, more than 100 µM, 0.865 µM and 2.33 µM.
On the same counts, the results for `COc1ccc2ccc(OC)c(C3C(C#N)=C(N)OC4=C3C(=O)CC(C)(C)C4)c2c1` (centres undefined) are more than 100 µM, 0.864 µM and 1.45 µM.
The compound `CC(C)(C)Cc1ccc(OCCCC(=O)Nc2ccc(Cl)c(N)c2)c(CC(C)(C)C)c1` came in with a CC50 in series [1] of more than 100 µM. Further, the EC50 in the series with Plasmodium falciparum [2] amounted to 0.848 µM; in the series on Plasmodium falciparum [3], 1.73 µM.
The like results for `C=CCSc1nc2sc3c(c2c(=O)n1-c1ccccc1)CCN(CCC)C3` were, in that order, more than 100 µM, 0.847 µM and 0.634 µM.
The like results for `CC(C)(C)c1ccc(Cn2nnc3c(O)nc(C4CCN(C(=O)c5ccccc5)CC4)nc32)cc1` were, in that order, more than 100 µM, 0.852 µM and 0.242 µM.
On the same counts, the results for `CCN1CCN(c2cc(C)c3cc(NC(=O)c4ccc(F)c([N+](=O)[O-])c4)ccc3n2)CC1` are 42.9 µM, 0.365 µM and 1.16 µM.
`Cc1cccc(-n2nc(C(C)(C)C)cc2NC(=O)CN(C(=O)/C=C/c2ccccc2)C(C)C)c1C`: the CC50 in series [1] is more than 10 µM. For the same compound, the EC50 with Plasmodium falciparum [2] is 0.0855 µM; in the series with Plasmodium falciparum [3], more than 1.75 µM.
The like results for `CC1=C(C(=O)OC(C)C)C(c2cccc([N+](=O)[O-])c2)C2=C(CCCC2=O)N1` (centres undefined) were, in that order, more than 100 µM, 0.854 µM and more than 11.1 µM.
The like results for `Cc1cc(C)c(S(=O)(=O)N(C)CCCNc2ccnc3cc(Cl)ccc23)c(C)c1` were, in that order, 26.8 µM, 0.229 µM and 0.167 µM.
On the same counts, the results for `CCN(CC)CCN1C(=O)c2ccccc2NC1c1ccc(Cl)cc1` (centres undefined) are 53.3 µM, 0.455 µM and 0.37 µM.
Consider `CC(=O)Nc1ccc2c(c1)C(=O)N(C(CC(C)(C)C)C(=O)NC1CCCCC1)[C@@H](CCC(=O)O)C(=O)N2` (some centres undefined), for which, in series [1], the CC50 was 6.18 µM. Further, the EC50 with Plasmodium falciparum [2] worked out at 0.0516 µM; in the series with Plasmodium falciparum [3], 0.868 µM.
On the same counts, the results for `COc1ccc(-n2nc3c(c2NC(=O)/C=C\c2cc(OC)c(OC)c(OC)c2)CSC3)cc1` are more than 10 µM, 0.0857 µM and more than 0.752 µM.
The like results for `C1CCC(CN2CCc3nc(N4CCCCC4)sc3C2)CC1` were, in that order, more than 10 µM, 0.0832 µM and 0.254 µM.
The like results for `CC1=C(C(=O)Nc2ccc(C)cc2C)C(c2cc(Br)ccc2F)n2ncc(C(=O)Nc3ccc(C)cc3)c2N1` (centres undefined) were, in that order, more than 100 µM, 0.857 µM and 2.55 µM.
Take `Cc1cc(C)n(-c2ccc(NC(=O)C3CCN(Cc4cnc(C)s4)CC3)cc2)n1`: the CC50 in series [1] is more than 100 µM. For the same compound, the half-maximal effective concentration (EC50) in the series on Plasmodium falciparum [2] came to 0.84 µM; in the series on Plasmodium falciparum [3] it was 0.811 µM.
On the same counts, the results for `CC(=O)N(C1=C(N2CCCC2)C(=O)c2ccccc2C1=O)c1ccc(F)c(F)c1` are 20.2 µM, 0.174 µM and 0.407 µM.
On the same counts, the results for `Cc1nonc1C(=O)NN=Cc1ccc([N+](=O)[O-])o1` are 49.3 µM, 0.42 µM and 1.73 µM.
The like results for `CC(C)(C)CC(=O)NCCCCNc1ccnc2cc(Cl)ccc12` were, in that order, more than 12.2 µM, 0.102 µM and 0.0207 µM.
With `COc1cccc(CCNC(=O)c2ccc(OC3CCN(CC(c4ccccc4)c4ccccc4)CC3)c(OC)c2)c1`, the CC50 in series [1] is more than 10 µM. Moreover, the EC50 in the series with Plasmodium falciparum [2] amounted to 0.0845 µM; with Plasmodium falciparum [3] it was 1.07 µM.
The like results for `COc1ccc2[nH]c(=O)c(CN(C(=S)Nc3ccccc3OC)C3CCCC3)cc2c1` were, in that order, more than 100 µM, 0.824 µM and 0.995 µM.
On the same counts, the results for `COc1ccc(C(=O)C[n+]2cc(-c3ccc(OC)cc3)n3c2CCC3)cc1` are more than 100 µM, 0.822 µM and 0.892 µM.
On the same counts, the results for `COc1ccccc1Cn1c(SCC(=O)Nc2cccc(C(F)(F)F)c2)nc2ccc(Br)cc2c1=O` are more than 100 µM, 0.831 µM and 0.735 µM.
In the case of `Cc1ccc(C)c(N2CCN(CCCNC(=O)c3ccc(CSc4nc5cnccc5[nH]4)cc3)CC2)c1`, in series [1], the CC50 was 23 µM. In addition, the EC50 with Plasmodium falciparum [2] was determined as 0.19 µM; in the series with Plasmodium falciparum [3] it was 0.644 µM.
For `COc1ccc(C=NN=C2NC(=O)C(CC(=O)Nc3ccccc3)S2)cc1OC` (centres undefined), the CC50 in series [1] is more than 100 µM. Also, the values for the EC50 in the series with Plasmodium falciparum [2] and in the series on Plasmodium falciparum [3] were 0.857 µM and 0.482 µM, respectively.
On the same counts, the results for `Cn1cnc(S(=O)(=O)Nc2ccccc2C(=O)NCC2CC2)c1` are more than 10 µM, 0.0821 µM and more than 1.47 µM.
The like results for `COc1cccc(Cn2c3cc(C)sc3c3cnn(C)c(=O)c32)c1` were, in that order, 68.6 µM, 0.583 µM and 0.497 µM.
On the same counts, the results for `CCc1nnc2sc(-c3ccc(NC(=O)c4ccc(Br)o4)cc3)nn12` are more than 100 µM, 0.833 µM and 5.05 µM.
In series [1], `COc1ccc(CNCc2cc3c(-c4ccc(C)cc4)nn(-c4ccccc4)c3[nH]c2=O)cc1` had a CC50 of more than 100 µM. Moreover, the EC50 with Plasmodium falciparum [2] was 0.842 µM; in the series on Plasmodium falciparum [3], 0.133 µM.
The like results for `Cc1cccn2c(=O)c3cc(C(=O)NCc4ccco4)c(=N)n(CCc4ccccc4)c3nc12` were, in that order, more than 100 µM, 0.865 µM and 0.388 µM.
On the same counts, the results for `CO/C(=C\C(N)=O)C(C)C(/C=C/c1csc(-c2csc(C(C)/C=C/C=C/C(C)C)n2)n1)OC` (centres undefined) are more than 10 µM, 0.0846 µM and 1.24 µM.
The compound `O=C(C1CC1)N1CCc2cc(Br)cc(S(=O)(=O)N3CCCCCC3)c21` had a CC50 in series [1] of more than 100 µM. In addition, the EC50 in the series with Plasmodium falciparum [2] amounted to 0.834 µM; in the series with Plasmodium falciparum [3], 1.43 µM.
The like results for `C=CCc1c(C)nc2ccccc2c1O` were, in that order, more than 100 µM, 0.844 µM and 0.707 µM.
The like results for `CC[n+]1c(/C=C/c2ccc(OC)cc2)ccc2ccccc21` were, in that order, more than 10 µM, 0.0858 µM and 0.11 µM.

The values are drawn from ChEMBL document CHEMBL1156829 (Proc Natl Acad Sci U S A, 2008).
